Measured values taken from patent US20120328602A1, “COMPOSITIONS AND METHODS FOR TREATING CONDITIONS ASSOCIATED WITH CERAMIDE BIOSYNTHESIS” (priority 2007, published 2012).
Entries after “also recorded” stand apart in the source; their conditions may differ. Like-named read-outs stand apart in the source and are kept apart here.

Legend:
mice [1] = type: in vivo; conditions: for % MPE for acute morphine: acute morphine 3 mg/kg s.c. on day five
ceramide [2] = assay: ceramide in spinal cord dorsal horn by immunohistochemistry and ESI-MS/MS (Example 1); type: in vivo, mice
mice [3] = type: in vivo, male CD-1 mice
mice [4] = assay: hot plate, morphine-induced antinociceptive tolerance (Examples 3-5); type: in vivo, Male CD-1 mice; conditions: for % MPE: n=6
Experimental: Nociceptive thresholds were determined by measuring latencies (in seconds) of mice placed in a transparent glass cylinder on a hot plate (Ugo Basile, Italy) maintained at 52° C. Determination of antinociception was assessed between 7 and 10:00 A.M. All injections were given intra-peritoneally (i.p.) or subcutaneously (s.c.) in a volume of 0.1 and 0.3 ml, respectively, at approximately 7 A.M. and 4 P.M. Responses indicative of nociception included intermittent lifting and/or licking of the hindpaws or escape behavior. […] Results were expressed as percentage of maximum possible antinociceptive effect, which was calculated as follows: (response latency−baseline latency)/(cut-off latency−baseline latency)×100. A cut-off latency of twenty seconds was employed to prevent tissue damage. Ten mice per group were used and all experiments were conducted with the experimentors blinded to treatment conditions. […] The following experimental groups were used: […]
Vehicle (V) Group: In this group, mice were injected twice per day for four days with an i.p, injection of saline and a s.c. injection of saline.

ceramide synthase = ceramide synthase activity in spinal cord homogenates; type: in vivo, mice
Experimental: About 60 to 80 mg of spinal cord homogenates were incubated with [^3H]-palmytic acid (2.5 μCi/ml, GE Healthcare, England) for one hour. Lipids were extracted with ice-cold methanol containing 2% acetic acid and 5% chloroform and resolved using thin-layer chromatography. Lipids co-migrating with standards were scraped and quantified by […] counting as described elsewhere (Castillo et al., 2007).

peroxynitrite = assay: 3-nitrotyrosine (NT) staining in dorsal horn as marker of peroxynitrite; type: in vivo, mice
Source text: . Detection of NT in this setting can therefore be reliably used as marker of peroxynitrite. […]; FIG. 8c), evidence of the contribution of ceramide in the production of spinal peroxynitrite.

GFAP = assay: spinal expression of GFAP (astrocyte activation); type: in vivo, mice; conditions: for GFAP immunoreactivity in superficial layers of the dorsal horn: micrographs
Experimental: Animals were rapidly sacrificed (<1 min) in a CO2 chamber and the dorsal portion of the spinal cord lumbar region enlargement removed and stored at −80° C. until used. Cytosolic and nuclear extracts were prepared as previously described (Bethea et al., 1998), with minor modifications. Tissues from each mouse were suspended in extraction Buffer A (0.2 mM PMSF, […], 20 μM leupeptin, 1 mM sodium orthovanadate), homogenized for two minutes, and centrifuged at 1,000×g for ten minutes at 4° C. Supernatants were collected as the cytosolic fraction. The pellets containing nuclei were re-suspended in Buffer B (1% Triton X-100, 150 mM NaCl, 10 mM TRIS-HCl pH 7.4, 1 mM EGTA, 1 mM EDTA, 0.2 mM PMSF, 20 μm leupeptin, 0.2 mM sodium orthovanadate). After centrifugation for thirty minutes at 15,000×g at 4° C., the supernatants were collected as nuclear extracts and then stored at […] for further analysis. The levels of IκB-α, phospho-NF-κB p65 (serine 536), were quantified in cytosolic fraction from spinal cord tissue, while NF-κB p65 levels were quantified in nuclear fraction.

Iba1 = assay: spinal expression of Iba1 (microglia activation); type: in vivo, mice; conditions: for Iba1 immunoreactivity in superficial layers of the dorsal horn: micrographs
ceramide [5] = assay: immunohistochemistry for ceramide in spinal cord (Example 3)
[6] = acute morphine in tolerant mice vs vehicle

CCCC[C@@H](C)[C@@H](OC(=O)C[C@@H](CC(=O)O)C(=O)O)[C@H](C[C@@H](C)C[C@H](O)CCCC[C@@H](O)C[C@H](O)[C@H](C)N)OC(=O)C[C@@H](CC(=O)O)C(=O)O [FB1, Fumonisin B1]
responses to acute morphine in control groups vs control groups treated with drug (mice [1]; Control+Drug groups, no repeated morphine): similar
development of antinociceptive tolerance (mice [1]; co-administration with morphine, i.p., FB1 1 mg/kg, myriocin 0.2 mg/kg, D609 40 mg/kg): prevented the development of antinociceptive tolerance
antinociceptive effects when tested alone (mice [1]; drug alone (not shown)): no antinociceptive effects
increase in ceramide by immunohistochemical analysis and ESI-MS/MS (ceramide [2]; co-administration of morphine with FB1 1 mg/kg): prevented
% MPE for acute morphine (mice [3]; Mor+FB1 groups, FB1 1 mg/kg/day i.p. for six days with morphine minipump): 87±4 % MPE
% MPE for acute morphine (mice [3]; control+FB1 groups, FB1 1 mg/kg/day i.p., saline minipump): 85±6 % MPE
development of tolerance, dose-dependence (mice [4]; co-administered with morphine, FB1 0.1-1 mg/kg/d, myriocin 0.1-0.4 mg/kg/d, D609 10-40 mg/kg/d, n=10): attenuated in a dose-dependent manner
hot plate latencies following s.c. saline (mice [4]; day five, highest dose of drug, no morphine, n=10): six and seven
difference in responses to acute morphine (0.3-3 mg/kg), drug vs vehicle (mice [4]; highest dose over five days: FB1 1 mg/kg/d, myriocin 0.4 mg/kg/d, D609 40 mg/kg/d, n=10): statistically insignificant
antinociceptive effects when tested alone (mice [4]; highest dose, alone): none of FB1, myriocin, or D609 had antinociceptive effects
% MPE (mice [4]; tolerant mice, single i.p. dose fifteen minutes before acute morphine 3 mg/kg: FB1 1 mg/kg, myriocin 0.4 mg/kg, D609 40 mg/kg): 7±3%
increase in CS activity (ceramide synthase; co-administration of morphine with FB1 1 mg/kg/d, n=10): attenuated as expected the increase in CS activity
appearance of NT staining (peroxynitrite; co-administration of morphine with FB1 1 mg/kg/d): blocked
GFAP immunoreactivity in superficial layers of the dorsal horn (GFAP; 1 mg/kg/d of FB1 with morphine): blocked
spinal expression of GFAP (activation of astrocytes) (GFAP; morphine plus FB1 1 mg/kg/d, n=5, ±SEM): 4627.38±0.483 densitometry units
Iba1 immunoreactivity in superficial layers of the dorsal horn (Iba1; 1 mg/kg/d of FB1 with morphine): blocked
spinal expression of IBa1 (activation of microglial cell) (Iba1; morphine plus FB1 1 mg/kg/d, n=5): 275.53±0.053 densitometry units
ceramide immunostaining (ceramide [5]; co-administered with morphine, FB1 1 mg/kg/d, myriocin 0.4 mg/kg/d, D609 40 mg/kg/d): attenuated; also recorded: abolished the presence of positive staining for ceramide

CN1CC[C@]23c4c5ccc(O)c4O[C@H]2[C@@H](O)C=C[C@H]3[C@H]1C5 [morphine]
% MPE for acute morphine (mice [1]; Control group (saline over four days)): 93±8 % MPE
% MPE for acute morphine (mice [1]; Morphine group (morphine 2×10 mg/kg/day over four days)): 20±14 % MPE
antinociceptive effect (mice [1]; acute morphine 3 mg/kg subcutaneously, forty minutes after dose, hot plate 52° C., n=8): 99±2%
ceramide in dorsal horn, immunohistochemistry with anti-ceramide antibody (ceramide [2]; repeated administration of morphine over four days): appearance of ceramide in the superficial layers of the dorsal horn
predominant ceramide species increased in dorsal horn tissues, ESI-MS/MS (ceramide [2]; repeated morphine administration, n=3): 18:0, 20:0, and 22:0 ceramide
% MPE for acute morphine (mice [3]; Morphine groups (morphine 50 mg/kg by osmotic minipump), acute morphine 3 mg/kg i.p., tail flick): 15±4 % MPE
% MPE for acute morphine (mice [3]; control groups (saline minipump), acute morphine 3 mg/kg i.p., tail flick, day six): 90±5 % MPE
percent maximal possible antinociceptive effect (mice [4]; acute morphine 3 mg/kg in vehicle group (saline over four days), hot plate): 90-95%
% MPE (mice [4]; morphine group (tolerant), acute morphine 3 mg/kg on day five): 10±2%
development of antinociceptive tolerance (mice [4]; repeated administration of morphine (20 mg/kg/d) over four days): led to the development of antinociceptive tolerance
% MPE (mice [4]; vehicle group (saline four days), acute morphine 3 mg/kg on day five): 96±3%
enzymatic activity of ceramide synthase (CS) (ceramide synthase; repeated morphine, tolerant mice vs vehicle): increased enzymatic activity
NT staining in dorsal horn (peroxynitrite; morphine tolerant mice): appearance of NT staining in tolerant mice
GFAP immunoreactivity in superficial layers of the dorsal horn (GFAP; [6]): increased
spinal expression of GFAP (GFAP; morphine group, n=5): 7343.95±0.527 densitometry units
Iba1 immunoreactivity in superficial layers of the dorsal horn (Iba1; [6]): increased
spinal expression of IBa1 (Iba1; morphine group, n=5, ±SEM): 541.29±0.073 densitometry units
ceramide staining in dorsal horn, immunohistochemistry (ceramide [5]; repeated morphine, day five): appearance of ceramide in the superficial layers of the dorsal horn; also recorded: marked appearance of positive staining for ceramide
